Measurements reported in publication PMC8537711, “Mechanistic Insights into Binding of Ligands with Thiazolidinedione Warhead to Human Histone Deacetylase 4” (Pharmaceuticals, 2021).

Experiments:
cdHDAC4wt [1] = molecular target: T1, cdHDAC4wt (Homo sapiens, UniProt P56524); assay: Reversibility assay via rapid dilution; residence time from reversibility data; assay type: biochemical; details: first order dissociation assumed; read-out: RT (RD), residence time from rapid dilution
T1 construct: consists of 410 amino acids (human HDAC4 T648-T1057) and has a molecular weight of 44.2 kDa; His6-SUMO (cleaved yes); made in house; host or cells: E. coli (BL21) DE3 pLysS, pET14b vector
Protocol: Rapid dilution was performed by diluting the incubated mixture 100-fold with substrate (Boc-Lys{TFA}-7-Amino-4-methylcoumarin (Bachem, Bubendorf, Switzerland)) with the final substrate concentration being 20 µM. […] A positive control without TZD ligand and a blank without enzyme and TZD ligand were also carried out. […] Once again the final substrate concentration was 20 µM. […] The deacetylated substrate was converted into a fluorescent product by the addition of 0.4 mg/mL trypsin (AppliChem, Darmstadt, Germany). The release of fluorogenic substrate was followed in a microplate reader (PherStar Plus, BMG Labtech, Ortenberg, Germany) at 450 nm (λEx = 350 nm) and correlated the positive control. […] All incubations steps were performed for 60 min at 30 °C and 450 rpm. The substrate was preheated to 30 °C before the rapid dilution step.
The reciprocal values for k equals the residence time of the respective TZD ligand (residence time = koff^−1), which can be compared with the residence times gained from association data.

[2] = molecular target: T2, cdHDAC4wt (catalytic domain of human wild type histone deacetylase 4) (Homo sapiens, UniProt P56524); assay: IC50 determination, enzyme activity assay with Boc-Lys{TFA}-AMC; assay type: biochemical; details: mean ± SD, N = 3
T2 construct: consists of 410 amino acids (human HDAC4 T648-T1057) and has a molecular weight of 44.2 kDa; His6-SUMO (cleaved yes); made in house; host or cells: E. coli (BL21) DE3 pLysS, pET14b vector
Protocol: Afterwards the enzymatic reaction was initiated by the addition of 20 µM Boc-Lys{TFA}-7-Amino-4-methylcoumarin (Bachem, Bubendorf, Switzerland) as substrate. […] The deacetylated substrate was converted into a fluorescent product by the addition of 0.4 mg/mL trypsin (AppliChem, Darmstadt, Germany). The release of fluorogenic substrate was followed in a microplate reader (PherStar Plus, BMG Labtech, Ortenberg, Germany) at 450 nm (λEx = 350 nm) and correlated to enzyme activity.
All incubations steps were performed for 60 min at 30 °C and 450 rpm.

cdHDAC4wt [3] = molecular target: T1, cdHDAC4wt; assay: Association kinetics (semi continuous enzyme activity assay, kobs vs inhibitor concentration); assay type: biochemical; details: for residence time: 1/koff (two step) or 1/k−3 (one step), read-out: RT (KF), residence time from kinetic fit; for forward isomerization rate constant (k2) / koff: isomerization rate; for koff: y-axis intercept; for Ki: two step induced fit model, read-out: K1 (equilibrium constant of initial encounter complex); for y-intercept of kobs plot (k−3): linear regression; for y-intercept of kobs plot (k−3) / k3 / k−3: one step model; for k3: slope of kobs vs ligand concentration; for k−3: y-intercept
Protocol: A serial dilution of inhibitor beginning at 10-fold of respective IC50-value in assay buffer (25 mM Tris-HCl, pH 8.0, 75 mM KCl, 0.001% Pluronic F-127) was made in a black 96-well microtiter half-area plate (Greiner, Kremsmuenster, Austria). The dilutions were added to 3 nM cdHDAC4wt. Shortly after, the reaction was initiated by adding 20 µM Boc-Lys{TFA}-7-Amino-4-methylcoumarin (Bachem, Bubendorf, Switzerland) as substrate. […] Finally 0.4 mg/mL trypsin was added to split the deacetylated substrate in the fluorescent product which was measured at 450 nm (λEx = 350 nm) (PherStar Plus, BMG Labtech, Ortenberg, Germany). […] The standardized RFUs were plotted against the incubation time. […] Due to this knowledge the data were fitted via non linear regression with GraphPad Prism program to the following equation by Copeland [27]:(2) Y=νs·t+νi−νs/kobs·(1−e^(−kobs·t))+d where vi is the initial slope, vs is the second lower slope, kobs is the respective rate constant, t is time and d the correction for possible data offset.
Afterwards kobs values were plotted against their respective inhibitor concentration.

T1 sequence (P56524 648-1057): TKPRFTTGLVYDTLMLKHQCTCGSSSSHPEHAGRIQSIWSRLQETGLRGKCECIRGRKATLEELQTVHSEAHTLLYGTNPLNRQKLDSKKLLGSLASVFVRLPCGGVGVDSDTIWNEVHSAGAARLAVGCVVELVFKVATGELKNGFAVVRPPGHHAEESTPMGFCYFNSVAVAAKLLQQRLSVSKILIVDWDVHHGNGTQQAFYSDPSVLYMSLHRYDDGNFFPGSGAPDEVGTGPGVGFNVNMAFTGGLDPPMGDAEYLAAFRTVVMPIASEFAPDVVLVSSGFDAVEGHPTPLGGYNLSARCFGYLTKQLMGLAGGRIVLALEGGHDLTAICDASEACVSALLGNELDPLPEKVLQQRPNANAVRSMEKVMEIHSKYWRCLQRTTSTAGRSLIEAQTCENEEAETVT
T2 sequence (P56524 648-1057): as above

## O=C1NC(=O)/C(=C/c2ccc(OCC(=O)N3N=C(c4ccccc4)CC3c3ccc(C(F)(F)F)cc3)cc2)S1 (stereo not shown) [4d]
cdHDAC4wt [1]
  residence time: 23 ± 6 min
[2]
  IC50: 790 ± 40 nM
cdHDAC4wt [3]
  residence time: 26 ± 11 min
  Ki: 1700 ± 700 nM
cdHDAC4wt [3]; two step model
  forward isomerization rate constant (k2): 0.008 ± 0.001 s⁻¹
  koff: 0.0006 ± 0.0003 s⁻¹
  kon: (8 ± 1) × 10^−3 s^−1

## O=C(COc1ccc2cc(/C=C3\SC(=O)NC3=O)ccc2c1)Nc1ccc(C(F)(F)F)cc1 [7i]
cdHDAC4wt [1]
  residence time: 17 ± 3 min
[2]
  IC50: 1300 ± 100 nM
cdHDAC4wt [3]
  residence time: 9.3 ± 0.5 min
  y-intercept of kobs plot (k−3): 0.0018 s⁻¹
  k3: 100 ± 30 M⁻¹ s⁻¹
  k−3: 0.18 ± 0.01 s^−1 (×10^−2)

## O=C(COc1ccc2cc(/C=C3\SC(=O)NC3=O)ccc2c1)Nc1ncccc1F [7s]
cdHDAC4wt [1]
  residence time: 11 ± 1 min
[2]
  IC50: 780 ± 80 nM
cdHDAC4wt [3]
  residence time: 10 ± 1 min
  y-intercept of kobs plot (k−3): 0.0016 s⁻¹
  k3: 210 ± 40 M⁻¹ s⁻¹
  k−3: 0.16 ± 0.02 s^−1 (×10^−2)

## O=C1NC(=O)/C(=C/c2ccc3cc(OCC(=O)N4N=C(c5ccccc5)CC4c4ccccc4)ccc3c2)S1 (stereo not shown) [8a]
cdHDAC4wt [1]
  residence time: 19 ± 2 min
[2]
  IC50: 770 ± 90 nM
cdHDAC4wt [3]
  residence time: 11 ± 4 min
  Ki: 2400 ± 1800 nM
cdHDAC4wt [3]; two step model
  forward isomerization rate constant (k2): 0.0049 ± 0.0014 s⁻¹
  koff: 0.0015 ± 0.0006 s⁻¹

## Cc1ccc(C=C2SC(=O)N(CC(=O)Nc3nc4c(Cl)cccc4s3)C2=O)cc1 [GB2, N-(4-chlorobenzo[d]thiazol-2-yl)-2-(5-(4-methylbenzylidene)-2,4-dioxothiazolidin-3-yl)acetamide]
other
  melting point: 292 to 294 °C

## Cc1ccc(C=C2SC(=O)N(CC(=O)Nc3nc4c(Cl)cccc4s3)C2=O)cc1C [GB6, N-(4-chlorobenzo[d]thiazol-2-yl)-2-(5-(3,4-dimethylbenzylidene)-2,4-dioxothiazolidin-3-yl)acetamide]
other
  melting point: 214 to 216 °C

## COc1cccc2sc(NC(=O)CN3C(=O)SC(=Cc4ccccc4)C3=O)nc12 [GB8, 2-(5-benzylidene-2,4-dioxothiazolidin-3-yl)-N-(4-methoxybenzo[d]thiazol-2-yl)acetamide]
other
  melting point: 157 to 159 °C

## Cc1cccc2sc(NC(=O)CN3C(=O)SC(=Cc4ccc(F)cc4)C3=O)nc12 [GB10, 2-(5-(4-fluorobenzylidene)-2,4-dioxothiazolidin-3-yl)-N-(4-methylbenzo[d]thiazol-2-yl)acetamide]
other
  melting point: 225 to 227 °C

## O=C(CN1C(=O)SC(=Cc2ccccc2)C1=O)Nc1nc2c(F)cc(F)cc2s1 [GB12, 2-(5-benzylidene-2,4-dioxothiazolidin-3-yl)-N-(4,6-difluorobenzo[d]thiazol-2-yl)acetamide]
other
  melting point: 280 to 282 °C

## Cc1ccc2nc(NC(=O)CN3C(=O)SC(=Cc4ccc(F)cc4F)C3=O)sc2c1 [GB13, 2-(5-(2,4-difluorobenzylidene)-2,4-dioxothiazolidin-3-yl)-N-(6-methylbenzo[d]thiazol-2-yl)acetamide]
other
  melting point: 266 to 268 °C

## Cc1ccc(C=C2SC(=O)N(CC(=O)Nc3nc4c(F)cc(F)cc4s3)C2=O)cc1 [GB19, N-(4,6-difluorobenzo[d]thiazol-2-yl)-2-(5-(4-methylbenzylidene)-2,4-dioxothiazolidin-3-yl)acetamide]
other
  melting point: 295 to 297 °C

## Cc1ccc(C=C2SC(=O)N(CC(=O)Nc3nc4c(F)cc(F)cc4s3)C2=O)cc1C [GB20, N-(4,6-difluorobenzo[d]thiazol-2-yl)-2-(5-(3,4-dimethylbenzylidene)-2,4-dioxothiazolidin-3-yl)acetamide]
other
  melting point: 271 to 273 °C

## Cc1cc2nc(NC(=O)CN3C(=O)SC(=Cc4ccccc4)C3=O)sc2cc1C [GB22, 2-(5-benzylidene-2,4-dioxothiazolidin-3-yl)-N-(5,6-dimethylbenzo[d]thiazol-2-yl)acetamide]
other
  melting point: 276 to 278 °C

## Cc1cc2nc(NC(=O)CN3C(=O)SC(=Cc4ccc(F)cc4)C3=O)sc2cc1C [GB25, N-(5,6-dimethylbenzo[d]thiazol-2-yl)-2-(5-(4-fluorobenzylidene)-2,4-dioxothiazolidin-3-yl)acetamide]
other
  melting point: 298 to 299 °C

## Cc1ccc(C=C2SC(=O)N(CC(=O)Nc3nc4cc(C)c(C)cc4s3)C2=O)cc1C [GB26, N-(5,6-dimethylbenzo[d]thiazol-2-yl)-2-(5-(3,4-dimethylbenzylidene)-2,4-dioxothiazolidin-3-yl)acetamide]
other
  melting point: 284 to 286 °C

## O=C(CN1C(=O)SC(=Cc2ccc(F)cc2F)C1=O)Nc1nc2c(F)cc(F)cc2s1 [GB29, N-(4,6-difluorobenzo[d]thiazol-2-yl)-2-(5-(2,4-difluorobenzylidene)-2,4-dioxothiazolidin-3-yl)acetamide]
other
  melting point: 274 to 276 °C

## O=C(CN1C(=O)SC(=Cc2ccccc2)C1=O)Nc1nc2c(F)cccc2s1 [GB30, 2-(5-benzylidene-2,4-dioxothiazolidin-3-yl)-N-(4-fluorobenzo[d]thiazol-2-yl)acetamide]
other
  melting point: 272 to 274 °C

## Cc1ccc2nc(NC(=O)CN3C(=O)SC(=Cc4ccc(Br)cc4)C3=O)sc2c1 [GB31, 2-(5-(4-bromobenzylidene)-2,4-dioxothiazolidin-3-yl)-N-(6-methylbenzo[d]thiazol-2-yl)acetamide]
other
  melting point: 292 to 294 °C

## O=C(CN1C(=O)SC(=Cc2ccc(Cl)cc2)C1=O)Nc1nc2ccc(F)cc2s1 [GB33, 2-(5-(4-chlorobenzylidene)-2,4-dioxothiazolidin-3-yl)-N-(6-fluorobenzo[d]thiazol-2-yl)acetamide]
other
  melting point: 290 to 292 °C

## O=C(CN1C(=O)SC(=Cc2ccc(F)cc2)C1=O)Nc1nc2ccc(F)cc2s1 [GB34, N-(6-fluorobenzo[d]thiazol-2-yl)-2-(5-(4-fluorobenzylidene)-2,4-dioxothiazolidin-3-yl)acetamide]
other
  melting point: 260 to 262 °C

## COc1cccc2sc(NC(=O)CN3C(=O)SC(=Cc4ccc(F)cc4)C3=O)nc12 [GB35, 2-(5-(4-fluorobenzylidene)-2,4-dioxothiazolidin-3-yl)-N-(4-methoxybenzo[d]thiazol-2-yl)acetamide]
other
  melting point: 172 °C

## Cc1cccc2sc(NC(=O)CN3C(=O)SC(=Cc4ccccn4)C3=O)nc12 [PB2, 2-(2,4-dioxo-5-(pyridin-2-ylmethylene)thiazolidin-3-yl)-N-(4-methylbenzo[d]thiazol-2-yl)acetamide]
other
  melting point: 260 °C (dec.)

## O=C(CN1C(=O)SC(=Cc2ccccn2)C1=O)Nc1nc2c(Cl)cccc2s1 [PB4, N-(4-chlorobenzo[d]thiazol-2-yl)-2-(2,4-dioxo-5-(pyridin-2-ylmethylene)thiazolidin-3-yl)acetamide]
other
  melting point: 273 °C (dec.)

## O=C(CN1C(=O)SC(=Cc2ccccn2)C1=O)Nc1nc2c(F)cc(F)cc2s1 [PB5, N-(4,6-difluorobenzo[d]thiazol-2-yl)-2-(2,4-dioxo-5-(pyridin-2-ylmethylene)thiazolidin-3-yl)acetamide]
other
  melting point: 294 °C (dec.)

## Cc1cc2nc(NC(=O)CN3C(=O)SC(=Cc4ccccn4)C3=O)sc2cc1C [PB6, N-(5,6-dimethylbenzo[d]thiazol-2-yl)-2-(2,4-dioxo-5-(pyridin-2-ylmethylene)thiazolidin-3-yl)acetamide]
other
  melting point: 295 °C (dec.)

## COc1cccc2sc(NC(=O)CN3C(=O)SC(=Cc4ccccn4)C3=O)nc12 [PB7, 2-(2,4-dioxo-5-(pyridin-2-ylmethylene)thiazolidin-3-yl)-N-(4-methoxybenzo[d]thiazol-2-yl)acetamide]
other
  melting point: 220 to 222 °C

## CCOc1ccc2nc(NC(=O)CN3C(=O)SC(=Cc4ccccn4)C3=O)sc2c1 [PB8, 2-(2,4-dioxo-5-(pyridin-2-ylmethylene)thiazolidin-3-yl)-N-(6-ethoxybenzo[d]thiazol-2-yl)acetamide]
other
  melting point: 230 °C (dec.)

## O=C(CN1C(=O)SC(=Cc2ccccn2)C1=O)Nc1nc2ccc(F)cc2s1 [PB9, 2-(2,4-dioxo-5-(pyridin-2-ylmethylene)thiazolidin-3-yl)-N-(6-fluorobenzo[d]thiazol-2-yl)acetamide]
other
  melting point: 265 °C (dec.)
